From US20240158370A1, “CK1 alpha AND DUAL CK1 alpha / GSPT1 DEGRADING COMPOUNDS” (Innovo Therapeutics, Inc., priority 2022, published 2024)

What was measured:
GSPT1 = GSPT1 (Homo sapiens, UniProt P15170+Q96SW2); assay: HiBiT degradation assay, GSPT1, Procedure B (Molt 4_hGSPT1_HiBIT cells); type: cell-based; design: Molt 4_hGSPT1_HiBIT N-terminus tagged cells were generated using CRISPR technology; endogenous in cells; host or cells: Molt 4 cells, CRISPR-edited; details: six hours
Experimental: Molt 4_hGSPT1_HiBIT N-terminus tagged cells were generated using CRISPR technology. Cells were maintained in RPMI media (Thermo Fisher Scientific, Catalog #11875-093) containing 10% Fetal Bovine Serum (Thermo Fisher Scientific, Catalog #16140071) 1% Penicillin-Streptomycin (Thermo Fisher Scientific, Catalog #25200056). Cells were maintained at 37° C. in a 5% CO2 environment.
Compounds were spotted onto Cornin 384-Well, Cell Culture-Treated, Flat-Bottom, Low Flange Microplate (Fisher Scientific, Catalog #07-201-013) using a Tecan D300e digital dispenser. Ten-point dose response curves spanning from 10 μM to 0.005 μM with a 0.1% DMSO tolerance were used.
Cells were centrifuged for 5 minutes at 1200 RPMs. Cell culture media was aspirated off and cells were resuspended with RPMI+10% FBS. Cell density was determined using a Denovix CellDrop BF cell counter. Cell density was adjusted to 1×10^6 cells/ml. 40 μl of cells was added to compound treated tissue culture plates and incubated for six hours at 37° C. After six hours, cell culture plates were removed from tissue culture incubator and cooled to room temperature. 40 μl of Nano-GloHiBiT Lytic Detection Reagent (Promega, Catalog #N3040) was added to each well. Plates were placed on an orbital shaker (600 rpm) for 20 minutes. Luminescence was measured using an Envsion plate reader (Perkin Elmer). IC50 curves and Ymin were generated using a 4-parameter curve fit with GraphPad Prism software (Prism Corporation).
Results from the HiBiT assay (DC50 (nM) and Ymin (% remaining)) are shown below. All CK1α data was generated according to Procedure A. GSPT1 data for Examples 1-600, 603-620 and 703-705 was generated according to Procedure A. GSPT1 data for Examples 601, 621-702 and 706-735 was generated according to Procedure B.

CK1α = molecular target: T1, CK1α (Homo sapiens, UniProt P48729+Q96SW2); assay: HiBiT degradation assay, CK1α, Procedure A; type: cell-based; details: six hours
T1 construct: CSNK1A1-HiBit KI HEK293(LgBit) Cells; host or cells: HEK293(LgBit) knock-in cells
Outline: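 Cells in DMEM+10% FBS at 1×10^6 cells/ml were added to pre-spotted compound (10-point dose response, 10 μM to 0.005 μM, 0.1% DMSO) and incubated 6 h at 37° C. Nano-Glo HiBiT lytic reagent was added and luminescence read. DC50 and Ymin came from 4-parameter curve fits.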

Sequence of GSPT1 (P15170 whole entry): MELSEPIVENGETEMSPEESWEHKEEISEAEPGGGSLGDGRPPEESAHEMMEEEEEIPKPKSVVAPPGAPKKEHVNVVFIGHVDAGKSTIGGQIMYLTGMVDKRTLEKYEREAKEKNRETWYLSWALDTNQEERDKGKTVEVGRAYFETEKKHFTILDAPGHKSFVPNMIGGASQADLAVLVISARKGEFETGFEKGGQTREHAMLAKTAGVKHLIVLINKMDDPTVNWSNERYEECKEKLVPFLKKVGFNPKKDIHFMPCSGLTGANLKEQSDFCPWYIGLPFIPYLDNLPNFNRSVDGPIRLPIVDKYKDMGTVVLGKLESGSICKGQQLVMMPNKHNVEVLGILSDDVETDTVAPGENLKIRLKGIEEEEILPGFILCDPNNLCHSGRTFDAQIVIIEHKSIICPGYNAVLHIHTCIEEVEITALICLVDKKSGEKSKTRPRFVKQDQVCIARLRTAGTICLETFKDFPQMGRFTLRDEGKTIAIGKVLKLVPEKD
Sequence of GSPT1 (Q96SW2 whole entry): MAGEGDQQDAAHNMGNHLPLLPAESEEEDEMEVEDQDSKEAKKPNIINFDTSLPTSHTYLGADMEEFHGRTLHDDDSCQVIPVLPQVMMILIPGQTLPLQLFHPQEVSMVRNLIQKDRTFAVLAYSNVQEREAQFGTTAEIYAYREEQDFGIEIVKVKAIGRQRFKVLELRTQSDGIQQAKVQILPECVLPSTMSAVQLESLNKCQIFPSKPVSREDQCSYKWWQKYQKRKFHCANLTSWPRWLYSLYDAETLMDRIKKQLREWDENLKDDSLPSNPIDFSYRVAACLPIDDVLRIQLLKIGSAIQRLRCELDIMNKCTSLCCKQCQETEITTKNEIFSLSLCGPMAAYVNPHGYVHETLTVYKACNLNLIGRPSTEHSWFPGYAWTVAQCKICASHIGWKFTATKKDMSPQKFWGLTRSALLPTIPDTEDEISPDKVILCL
Sequence of GSPT1 (Q16531 whole entry partner): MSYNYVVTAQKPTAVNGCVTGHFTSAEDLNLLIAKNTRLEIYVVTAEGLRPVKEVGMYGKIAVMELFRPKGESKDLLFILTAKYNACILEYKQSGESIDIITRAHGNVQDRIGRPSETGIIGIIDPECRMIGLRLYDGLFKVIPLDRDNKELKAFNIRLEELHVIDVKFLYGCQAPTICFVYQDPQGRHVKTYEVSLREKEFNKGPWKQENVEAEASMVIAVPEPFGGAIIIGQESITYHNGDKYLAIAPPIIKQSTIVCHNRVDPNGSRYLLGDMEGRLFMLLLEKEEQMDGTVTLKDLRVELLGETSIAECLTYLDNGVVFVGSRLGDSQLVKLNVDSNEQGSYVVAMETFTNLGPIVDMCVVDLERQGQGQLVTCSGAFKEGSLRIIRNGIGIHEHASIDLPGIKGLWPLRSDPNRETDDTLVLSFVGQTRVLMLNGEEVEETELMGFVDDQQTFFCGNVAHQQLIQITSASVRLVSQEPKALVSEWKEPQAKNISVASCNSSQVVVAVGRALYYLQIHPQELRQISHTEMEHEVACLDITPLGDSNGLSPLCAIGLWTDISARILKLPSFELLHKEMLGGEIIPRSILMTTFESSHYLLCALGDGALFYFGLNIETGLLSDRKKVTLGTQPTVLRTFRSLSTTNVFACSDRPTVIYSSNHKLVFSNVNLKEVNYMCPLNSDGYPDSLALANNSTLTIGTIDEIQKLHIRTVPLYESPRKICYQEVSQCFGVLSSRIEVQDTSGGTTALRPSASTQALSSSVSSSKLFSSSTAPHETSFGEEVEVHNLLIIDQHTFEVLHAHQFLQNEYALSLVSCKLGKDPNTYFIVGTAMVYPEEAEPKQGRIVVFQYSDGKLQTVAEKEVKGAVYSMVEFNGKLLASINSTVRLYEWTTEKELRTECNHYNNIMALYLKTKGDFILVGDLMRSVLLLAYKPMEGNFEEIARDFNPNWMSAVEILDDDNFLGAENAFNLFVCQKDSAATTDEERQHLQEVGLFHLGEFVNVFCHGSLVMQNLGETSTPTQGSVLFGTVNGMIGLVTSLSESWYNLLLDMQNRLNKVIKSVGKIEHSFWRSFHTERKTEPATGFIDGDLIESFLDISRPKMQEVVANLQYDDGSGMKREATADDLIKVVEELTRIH
T1 sequence (P48729 whole entry): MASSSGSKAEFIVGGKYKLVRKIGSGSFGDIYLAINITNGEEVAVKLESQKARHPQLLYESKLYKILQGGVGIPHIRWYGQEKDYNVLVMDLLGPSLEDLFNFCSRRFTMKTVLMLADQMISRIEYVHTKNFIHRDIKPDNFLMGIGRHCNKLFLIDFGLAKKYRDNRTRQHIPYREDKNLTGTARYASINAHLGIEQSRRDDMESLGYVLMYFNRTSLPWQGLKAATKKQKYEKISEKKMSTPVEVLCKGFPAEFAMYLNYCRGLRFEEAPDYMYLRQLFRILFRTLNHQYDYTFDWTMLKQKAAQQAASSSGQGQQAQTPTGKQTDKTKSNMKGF
T1 sequence (Q96SW2 whole entry): as the sequence (Q96SW2 whole entry) above
T1 sequence (Q16531 whole entry partner): as the sequence (Q16531 whole entry partner) above

Cn1cc(-c2ccc3c(c2)CN(C2CCC(=O)NC2=O)C3=O)nc1-c1cccs1 (centres unmarked) [Example 646]
DC50 (GSPT1): ≥ 25 nM | GSPT1 Ymin (GSPT1): F (F = >75-100% remaining) | CK1α Ymin (CK1α): C (C = 0-10% remaining) | DC50 (CK1α): < 25 nM

Cn1cc(-c2ccc3c(c2)CN(C2CCC(=O)NC2=O)C3=O)nc1-c1ccc(F)cc1Cl (centres unmarked) [Example 647]
DC50 (GSPT1): ≥ 25 nM | GSPT1 Ymin (GSPT1): F (F = >75-100% remaining) | CK1α Ymin (CK1α): D (D = >10- 25% remaining) | DC50 (CK1α): < 25 nM

Cc1ccc(-c2nc(-c3ccc4c(c3)CN(C3CCC(=O)NC3=O)C4=O)cn2C)c(Cl)c1 (centres unmarked) [Example 648]
DC50 (GSPT1): < 25 nM | GSPT1 Ymin (GSPT1): F (F = >75-100% remaining) | CK1α Ymin (CK1α): D (D = >10- 25% remaining) | DC50 (CK1α): < 25 nM

Cn1cc(-c2ccc3c(c2)CN(C2CCC(=O)NC2=O)C3=O)nc1-c1ccccc1C(F)(F)F (centres unmarked) [Example 649]
DC50 (GSPT1): < 25 nM | GSPT1 Ymin (GSPT1): E (E = >25-75% remaining) | CK1α Ymin (CK1α): D (D = >10- 25% remaining) | DC50 (CK1α): < 25 nM

Cc1cccc(-c2nc(-c3ccc4c(c3)CN(C3CCC(=O)NC3=O)C4=O)cn2C)c1C (centres unmarked) [Example 650]
DC50 (GSPT1): < 25 nM | GSPT1 Ymin (GSPT1): F (F = >75-100% remaining) | CK1α Ymin (CK1α): D (D = >10- 25% remaining) | DC50 (CK1α): < 25 nM

Cc1cccc(F)c1-c1nc(-c2ccc3c(c2)CN(C2CCC(=O)NC2=O)C3=O)cn1C (centres unmarked) [Example 651]
DC50 (GSPT1): < 25 nM | GSPT1 Ymin (GSPT1): E (E = >25-75% remaining) | CK1α Ymin (CK1α): D (D = >10- 25% remaining) | DC50 (CK1α): < 25 nM

Cn1cc(-c2ccc3c(c2)CN(C2CCC(=O)NC2=O)C3=O)nc1-c1ccc2ccccc2c1 (centres unmarked) [Example 652]
DC50 (GSPT1): < 25 nM | GSPT1 Ymin (GSPT1): F (F = >75-100% remaining) | CK1α Ymin (CK1α): D (D = >10- 25% remaining) | DC50 (CK1α): < 25 nM

Cn1cc(-c2ccc3c(c2)CN(C2CCC(=O)NC2=O)C3=O)nc1-c1ccc(F)cc1F (centres unmarked) [Example 653]
DC50 (GSPT1): ≥ 25 nM | GSPT1 Ymin (GSPT1): F (F = >75-100% remaining) | CK1α Ymin (CK1α): D (D = >10- 25% remaining) | DC50 (CK1α): < 25 nM

Cn1cc(-c2ccc3c(c2)CN(C2CCC(=O)NC2=O)C3=O)nc1-c1ccc(C#N)cc1F (centres unmarked) [Example 654]
DC50 (GSPT1): < 25 nM | GSPT1 Ymin (GSPT1): F (F = >75-100% remaining) | CK1α Ymin (CK1α): D (D = >10- 25% remaining) | DC50 (CK1α): < 25 nM

Cn1cc(-c2ccc3c(c2)CN(C2CCC(=O)NC2=O)C3=O)nc1-c1ccc(C#N)c(F)c1 (centres unmarked) [Example 655]
DC50 (GSPT1): ≥ 25 nM | GSPT1 Ymin (GSPT1): F (F = >75-100% remaining) | CK1α Ymin (CK1α): E (E = >25-75% remaining) | DC50 (CK1α): < 25 nM

Cn1cc(-c2ccc3c(c2)CN(C2CCC(=O)NC2=O)C3=O)nc1-c1ccccc1F (centres unmarked) [Example 656]
DC50 (GSPT1): ≥ 25 nM | GSPT1 Ymin (GSPT1): F (F = >75-100% remaining) | CK1α Ymin (CK1α): E (E = >25-75% remaining) | DC50 (CK1α): < 25 nM

Cn1cc(-c2ccc3c(c2)CN(C2CCC(=O)NC2=O)C3=O)nc1-c1ccc(CO)cc1 (centres unmarked) [Example 657]
DC50 (GSPT1): ≥ 25 nM | GSPT1 Ymin (GSPT1): F (F = >75-100% remaining) | CK1α Ymin (CK1α): D (D = >10- 25% remaining) | DC50 (CK1α): < 25 nM

Cn1cc(-c2ccc3c(c2)CN(C2CCC(=O)NC2=O)C3=O)nc1-c1ccc2nccn2c1 (centres unmarked) [Example 658]
DC50 (GSPT1): ≥ 25 nM | GSPT1 Ymin (GSPT1): F (F = >75-100% remaining) | CK1α Ymin (CK1α): D (D = >10- 25% remaining) | DC50 (CK1α): ≥ 25 nM

Cn1cc(-c2ccc3c(c2)CN(C2CCC(=O)NC2=O)C3=O)nc1-c1cncc2ccccc12 (centres unmarked) [Example 659]
DC50 (GSPT1): ≥ 25 nM | GSPT1 Ymin (GSPT1): F (F = >75-100% remaining) | CK1α Ymin (CK1α): E (E = >25-75% remaining) | DC50 (CK1α): < 25 nM

Cn1cc(-c2ccc3c(c2)CN(C2CCC(=O)NC2=O)C3=O)nc1-c1ccc2ncccc2c1 (centres unmarked) [Example 660]
DC50 (GSPT1): < 25 nM | GSPT1 Ymin (GSPT1): E (E = >25-75% remaining) | CK1α Ymin (CK1α): D (D = >10- 25% remaining) | DC50 (CK1α): < 25 nM

Cn1cc(-c2ccc3c(c2)CN(C2CCC(=O)NC2=O)C3=O)nc1-c1ccc(Cl)c(F)c1 (centres unmarked) [Example 661]
DC50 (GSPT1): ≥ 25 nM | GSPT1 Ymin (GSPT1): F (F = >75-100% remaining) | CK1α Ymin (CK1α): E (E = >25-75% remaining) | DC50 (CK1α): < 25 nM

Cn1cc(-c2ccc3c(c2)CN(C2CCC(=O)NC2=O)C3=O)nc1-c1c[nH]c2ncccc12 (centres unmarked) [Example 662]
DC50 (GSPT1): ≥ 25 nM | GSPT1 Ymin (GSPT1): F (F = >75-100% remaining) | CK1α Ymin (CK1α): E (E = >25-75% remaining) | DC50 (CK1α): < 25 nM
